Assay results from PMC4992826, “Male tarsi specific odorant-binding proteins in the diving beetle Cybister japonicus sharp” (Scientific Reports, 2016).

Legend:
CjapOBP1 [1] = target: T1, CjapOBP1 (Cybister japonicus, UniProt A0A1Q1N696); test: Competitive fluorescence binding assay with 1-NPN as reporter; settings: protein 5 μM, 1-NPN 2 μM, competitor up to 16 μM
T1 sequence (A0A1Q1N696 17-136): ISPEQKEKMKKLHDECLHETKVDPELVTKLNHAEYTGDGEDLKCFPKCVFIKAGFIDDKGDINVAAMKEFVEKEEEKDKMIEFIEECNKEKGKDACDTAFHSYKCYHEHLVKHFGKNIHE
Description: (§1) To characterize the ligand-binding properties of the two OBPs, we performed fluorescence binding assays with several chemicals having different structures using N-phenyl-1-naphthylamine (1-NPN) as a fluorescent reporter. In the absence of any information about potential semiochemicals for this insect, as well as for related species, we selected some common plant volatiles, such as citral, coniferyl aldehyde, eugenol and 2-isobutyl-3-mthoxypyrazine, and structurally similar compounds. 1-NPN binds CjapOBP1 and CjapOBP2 with dissociation constants of 3.3 and 2.1 μM respectively (Fig. 5A). Among the ligands tested, we identified a single good ligand for each protein, citral for CjapOBP1 and coniferyl aldehyde for CjapOBP2 (Fig. 5B,C).
(§2) Figure 5 Affinity of CjapOBPs to candidate chemical ligands. (A) Both CjapOBP1 and CjapOBP2 bind the fluorescent probe 1-NPN, with dissociation constants of 3.3 μM and 2.1 μM, respectively. (B) Competitive binding curves of selected ligands to the two CjapOBPs. Mixtures of proteins (5 μM) and 1-NPN (2 μM) were titrated with 1mM solutions of the ligands in methanol. […] (C) The chemical structures of the chemicals applied.
(§3) To measure the affinity of the fluorescent ligand N-phenyl-1-naphthylamine (1-NPN), a 2 μM solution of the protein in 50 mM Tris-HCl (pH 7.4) was titrated with aliquots of 1 mM 1-NPN in methanol to final concentrations of 1–16 μM. The probe was excited at 337 nm, and emission spectra were recorded between 380 and 450 nm. The affinity of other ligands was measured in competitive binding assays, using the protein and the fluorescent reporter 1-NPN at the concentration of 5 μM and 2 μM respectively, while increasing the final concentration of each competitor up to 16 μM. Dissociation constants for 1-NPN were evaluated from Scatchard plots of the binding data, and other ligands were calculated from the corresponding IC50 values, using the equation: KD = [IC50]/1+[1-NPN]/K1-NPN, [1-NPN] being the free concentration of 1-NPN and K1-NPN being the dissociation constant of the complex protein/1-NPN.

CjapOBP1 [2] = target: T1, CjapOBP1; test: Fluorescence binding assay, direct titration with 1-NPN; settings: recombinant CjapOBP1, 2 μM protein in 50 mM Tris-HCl pH 7.4, titrated with 1-NPN 1–16 μM; Scatchard plot; read-out: dissociation constant
Description: as §1, §2
(§4) To measure the affinity of the fluorescent ligand N-phenyl-1-naphthylamine (1-NPN), a 2 μM solution of the protein in 50 mM Tris-HCl (pH 7.4) was titrated with aliquots of 1 mM 1-NPN in methanol to final concentrations of 1–16 μM. […]

CjapOBP2 [3] = target: T2, CjapOBP2 (Cybister japonicus, UniProt A0A1Q1N694); test: as above; settings: recombinant CjapOBP2, 2 μM protein in 50 mM Tris-HCl pH 7.4, titrated with 1-NPN 1–16 μM; Scatchard plot; read-out: dissociation constant
Description: as §1, §2, §4

CjapOBP2 [4] = target: T2, CjapOBP2; test: Competitive fluorescence binding assay with 1-NPN as reporter; settings: protein 5 μM, 1-NPN 2 μM, competitor up to 16 μM
Description: as §1, §2, §3

T2 sequence (A0A1Q1N694 entry or part of it): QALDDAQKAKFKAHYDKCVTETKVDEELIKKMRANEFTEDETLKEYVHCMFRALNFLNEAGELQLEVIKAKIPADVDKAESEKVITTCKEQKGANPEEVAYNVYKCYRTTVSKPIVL

| SMILES | binding to CjapOBP2 (displacement of 1-NPN) (CjapOBP2 [4]) | other results |
| --- | --- | --- |
| CC(C)=CCCC(C)=CC=O (mixture of isomers) [citral] | – | binding to CjapOBP1 (displacement of 1-NPN) (CjapOBP1 [1]): good ligand |
| c1ccc(Nc2cccc3ccccc23)cc1 [1-NPN, N-phenyl-1-naphthylamine] | – | Kd (CjapOBP1 [2]): 3300 nM; Kd (CjapOBP2 [3]): 2100 nM |
| COc1cc(/C=C/C=O)ccc1O [coniferyl aldehyde] | good ligand | – |
| COc1cc(CCC(=O)O)ccc1O [dihydroferulic acid] | did not show appreciable binding | – |
| C=CCc1ccc(O)c(OC)c1 [eugenol] | did not show appreciable binding | – |
| CO/C(C=O)=C\c1ccccc1 [α-methoxycinnamaldehyde] | did not show appreciable binding | – |
